According to patent publication US20060002994A1, “Responsive liposomes for ultrasonic drug delivery” (priority 2004, published 2006):
Where two headings read alike, the source gives them in different places.

How the values were obtained:
[1] = Estimated partition coefficients (K) of detergents into the lipid membrane; format: physicochemical; conditions: estimated as inverse of CMC; P-105 at 37° C.
Description: Critical micelle concentrations (CMC) and estimated partition coefficients (K) of several detergents assayed. For membrane-solubilizing detergents, the product of the CMC and the partition coefficient is of order unity.

[2] = obtained from the literature; P-105 at 37° C.; cited from earlier work
[3] = Critical micelle concentrations (CMC) of detergents; format: physicochemical; conditions: source not stated
Description: RESULTS: Some ethylene glycol-containing surfactants can cause enhanced release of a self-quenching fluorescent marker dye from liposomes under 20 kHz ultrasound stimulation.[19] In FIG. 4, the rate of fluorescence increase caused by release of liposomally-entrapped calcein dye is shown in liposomes treated with five different surfactants. The total surfactant concentrations were normalized to the CMCs (Table 1, below). CMCs for TRITON® X-100, TRITON® X-405, PLURONIC® P-105 [20] and TWEEN® 80 were obtained from the literature. All surfactants, except DPPE-PEG2000, were dissolved in the buffer prior to the introduction of the liposomes. DPPE-PEG2000 was incorporated into the liposomes prior to extrusion. For all surfactants except TRITON® X-100, the rate of fluorescence increase in the absence of ultrasound was <0.04% per second, i.e., off the bottom of the figure. (At the higher TRITON® X-100 concentrations, the spontaneous leakage was >0.11% per second.) All of the surfactants induced about a 10-15 fold increase in the response to 20 kHz ultrasound. More remarkably, the surfactants reached maximal effectiveness at concentrations of about 1% of the critical micelle concentration. […] Furthermore, the different surfactants plateau at different levels. […]

Substance	K (estimated partition coefficient) [1] [M⁻¹]	CMC [2] [µM]	CMC [3] [µM]
TWEEN ® 80	10000	100	
1,2-dipalmitoyl-sn-glycero-3-phosphoethanolamine-N-methoxy(polyethylene glycol)2000 [DPPE-PEG2000, reference compound]	14300		70
TWEEN ® 20	12500		80
